Holding throughout (assay): compensated interferometric reader
In experiment [1] the target is T1, transcobalamin 2 (TCN2) (Homo sapiens, UniProt P20062).
T1 sequence (P20062 19-427): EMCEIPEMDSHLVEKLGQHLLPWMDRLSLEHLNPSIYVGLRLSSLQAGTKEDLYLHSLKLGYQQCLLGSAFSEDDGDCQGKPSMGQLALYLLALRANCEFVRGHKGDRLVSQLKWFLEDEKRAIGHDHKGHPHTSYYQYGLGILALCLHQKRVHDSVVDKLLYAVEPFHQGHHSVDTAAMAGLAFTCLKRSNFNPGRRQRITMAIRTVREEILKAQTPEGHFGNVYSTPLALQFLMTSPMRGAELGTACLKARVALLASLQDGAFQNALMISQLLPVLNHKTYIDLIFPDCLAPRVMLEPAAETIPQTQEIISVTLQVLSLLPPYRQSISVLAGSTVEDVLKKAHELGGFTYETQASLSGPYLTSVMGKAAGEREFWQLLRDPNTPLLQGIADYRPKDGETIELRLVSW
The experiment is classed as binding.

The target in experiment [2] is T2, CD320 (Homo sapiens, UniProt Q9NPF0).
T2 sequence (Q9NPF0 36-229 limits assumed): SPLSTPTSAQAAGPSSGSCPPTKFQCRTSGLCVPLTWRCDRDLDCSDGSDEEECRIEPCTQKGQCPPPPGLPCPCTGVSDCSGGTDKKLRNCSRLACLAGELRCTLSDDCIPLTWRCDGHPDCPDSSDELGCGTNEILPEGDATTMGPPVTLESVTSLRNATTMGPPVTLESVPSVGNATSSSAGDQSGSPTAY
The experiment is classed as binding.

Experiment [3] concerns the target T1, transcobalamin 2 (TCN2). The class given is binding. This is another data set of the same source.
Experiment [4] addresses T3, Recombinant human TCN2 (human, UniProt P20062 19-427).
T3 sequence (looked up): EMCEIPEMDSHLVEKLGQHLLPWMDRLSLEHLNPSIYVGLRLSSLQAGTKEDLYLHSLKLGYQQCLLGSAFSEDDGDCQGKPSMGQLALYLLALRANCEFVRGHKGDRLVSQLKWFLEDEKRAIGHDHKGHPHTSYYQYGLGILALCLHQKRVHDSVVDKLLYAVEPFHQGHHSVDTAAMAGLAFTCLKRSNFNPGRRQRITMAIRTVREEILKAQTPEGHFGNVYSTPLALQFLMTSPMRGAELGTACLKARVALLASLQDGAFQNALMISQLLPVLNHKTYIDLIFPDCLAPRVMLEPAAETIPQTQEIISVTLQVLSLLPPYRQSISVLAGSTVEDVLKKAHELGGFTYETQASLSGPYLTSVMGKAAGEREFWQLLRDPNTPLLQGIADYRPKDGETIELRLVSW

Broadly, the Kd is the free concentration of one partner at which half of the binding sites on the other are occupied at equilibrium, for simple one-to-one binding.

Where two headings read alike, the source gives them in different places.

As to `CCCCCCCCc1ccc(CCC(N)(CO)CO)cc1` [FTY720], the affinity in experiment [1], expressed as Kd, was 0.24 nM.

For the molecule `CCCCCCCCCCCCC/C=C/[C@@H](O)[C@@H](N)COP(=O)(O)O` [S1P], the equilibrium dissociation constant (Kd) in experiment [2] was determined as 11.8 nM.

With `CCCCCCCCCCCCC/C=C/[C@@H](O)[C@@H](N)CO` [sphingosine], the equilibrium dissociation constant (Kd) in experiment [3] amounted to 0.14 nM.

Vitamin B12: the dissociation constant (Kd) in experiment [3] was 0.19 nM.

B1: Recombinant human CD320 (receptor, UniProt Q9NPF0 36-229, looked up)
chain: SPLSTPTSAQAAGPSSGSCPPTKFQCRTSGLCVPLTWRCDRDLDCSDGSDEEECRIEPCTQKGQCPPPPGLPCPCTGVSDCSGGTDKKLRNCSRLACLAGELRCTLSDDCIPLTWRCDGHPDCPDSSDELGCGTNEILPEGDATTMGPPVTLESVTSLRNATTMGPPVTLESVPSVGNATSSSAGDQSGSPTAY
As to B1, the equilibrium dissociation constant (Kd) in experiment [4] stood at 1.86 nM.

The values are drawn from paper PMC11066976 (Cell reports, 2023).
